Source: the NIST ThermoML archive (doi:10.1016/j.jct.2005.03.012)
Numbers after ± are expanded uncertainties.

Assay: excess molar enthalpy (molar enthalpy of mixing); xn = mol fraction of the nth substance listed
Conditions: Liquid

Structure (SMILES): CO [methanol] + O
- excess molar enthalpy (505.01 K, 10000 kPa, x1 = 0.2): 0.0844 ± 0.00335 kcal/mol
- excess molar enthalpy (505.63 K, 10000 kPa, x1 = 0.6): 0.0984 ± 0.00382 kcal/mol
- excess molar enthalpy (505.93 K, 8500 kPa, x1 = 0.3): 0.0752 ± 0.00311 kcal/mol
- excess molar enthalpy (506.02 K, 8500 kPa, x1 = 0.2): 0.0617 ± 0.00263 kcal/mol
- excess molar enthalpy (506.29 K, 8500 kPa, x1 = 0.4): 0.0736 ± 0.00311 kcal/mol
- excess molar enthalpy (506.52 K, 10000 kPa, x1 = 0.2): 0.0828 ± 0.00335 kcal/mol
- excess molar enthalpy (506.53 K, 10000 kPa, x1 = 0.4): 0.108 ± 0.00406 kcal/mol
- excess molar enthalpy (506.59 K, 8500 kPa, x1 = 0.1): 0.0371 ± 0.00189 kcal/mol
- excess molar enthalpy (506.7 K, 8500 kPa, x1 = 0.5): 0.0603 ± 0.00263 kcal/mol
- excess molar enthalpy (507.3 K, 8500 kPa, x1 = 0.6): 0.0391 ± 0.00201 kcal/mol
- excess molar enthalpy (507.4 K, 10000 kPa, x1 = 0.8): 0.0512 ± 0.00232 kcal/mol
- excess molar enthalpy (507.5 K, 10000 kPa, x1 = 0.6): 0.093 ± 0.00359 kcal/mol
- excess molar enthalpy (507.82 K, 8500 kPa, x1 = 0.7): 0.0164 ± 0.00165 kcal/mol
- excess molar enthalpy (507.86 K, 8500 kPa, x1 = 0.1): 0.0344 ± 0.00182 kcal/mol
- excess molar enthalpy (508.01 K, 8500 kPa, x1 = 0.2): 0.0531 ± 0.00239 kcal/mol
- excess molar enthalpy (508.15 K, 8500 kPa, x1 = 0.1): 0.0342 ± 0.00182 kcal/mol
- excess molar enthalpy (508.15 K, 8500 kPa, x1 = 0.2): 0.0525 ± 0.00237 kcal/mol
- excess molar enthalpy (508.15 K, 8500 kPa, x1 = 0.3): 0.0606 ± 0.00263 kcal/mol
- excess molar enthalpy (508.15 K, 8500 kPa, x1 = 0.4): 0.0578 ± 0.00263 kcal/mol
- excess molar enthalpy (508.15 K, 8500 kPa, x1 = 0.5): 0.0455 ± 0.00215 kcal/mol
- excess molar enthalpy (508.15 K, 8500 kPa, x1 = 0.6): 0.0288 ± 0.00179 kcal/mol
- excess molar enthalpy (508.15 K, 8500 kPa, x1 = 0.7): 0.012 ± 0.00167 kcal/mol
- excess molar enthalpy (508.15 K, 8500 kPa, x1 = 0.8): -0.00588 ± 0.00174 kcal/mol
- excess molar enthalpy (508.15 K, 8500 kPa, x1 = 0.9): -0.0143 ± 0.00179 kcal/mol
- excess molar enthalpy (508.15 K, 10000 kPa, x1 = 0.2): 0.0818 ± 0.00335 kcal/mol
- excess molar enthalpy (508.15 K, 10000 kPa, x1 = 0.4): 0.103 ± 0.00382 kcal/mol
- excess molar enthalpy (508.15 K, 10000 kPa, x1 = 0.6): 0.0886 ± 0.00359 kcal/mol
- excess molar enthalpy (508.15 K, 10000 kPa, x1 = 0.8): 0.0489 ± 0.00225 kcal/mol
- excess molar enthalpy (508.29 K, 8500 kPa, x1 = 0.8): -0.00834 ± 0.00179 kcal/mol
- excess molar enthalpy (508.45 K, 8500 kPa, x1 = 0.9): -0.0172 ± 0.00189 kcal/mol
- excess molar enthalpy (508.63 K, 10000 kPa, x1 = 0.8): 0.0472 ± 0.00232 kcal/mol
- excess molar enthalpy (508.68 K, 8500 kPa, x1 = 0.4): 0.0514 ± 0.00234 kcal/mol
- excess molar enthalpy (509.15 K, 8500 kPa, x1 = 0.3): 0.0516 ± 0.00234 kcal/mol
- excess molar enthalpy (509.29 K, 8500 kPa, x1 = 0.5): 0.03 ± 0.00167 kcal/mol
- excess molar enthalpy (509.71 K, 10000 kPa, x1 = 0.2): 0.0786 ± 0.00311 kcal/mol
- excess molar enthalpy (509.71 K, 10000 kPa, x1 = 0.6): 0.0815 ± 0.00335 kcal/mol
- excess molar enthalpy (509.71 K, 10000 kPa, x1 = 0.8): 0.0423 ± 0.0022 kcal/mol
- excess molar enthalpy (509.91 K, 8500 kPa, x1 = 0.1): 0.0298 ± 0.00167 kcal/mol
- excess molar enthalpy (509.91 K, 8500 kPa, x1 = 0.2): 0.0434 ± 0.00208 kcal/mol
- excess molar enthalpy (509.91 K, 8500 kPa, x1 = 0.3): 0.0466 ± 0.00217 kcal/mol
- excess molar enthalpy (509.91 K, 8500 kPa, x1 = 0.4): 0.0384 ± 0.00194 kcal/mol
- excess molar enthalpy (509.91 K, 8500 kPa, x1 = 0.5): 0.0221 ± 0.00146 kcal/mol
- excess molar enthalpy (509.91 K, 8500 kPa, x1 = 0.6): 0.00275 ± 0.00127 kcal/mol
- excess molar enthalpy (509.91 K, 8500 kPa, x1 = 0.7): -0.0163 ± 0.00174 kcal/mol
- excess molar enthalpy (509.91 K, 8500 kPa, x1 = 0.8): -0.0325 ± 0.00227 kcal/mol
- excess molar enthalpy (509.91 K, 8500 kPa, x1 = 0.9): -0.037 ± 0.00237 kcal/mol
- excess molar enthalpy (510.17 K, 8500 kPa, x1 = 0.7): -0.0212 ± 0.00182 kcal/mol
- excess molar enthalpy (510.19 K, 10000 kPa, x1 = 0.3): 0.0908 ± 0.00645 kcal/mol
- excess molar enthalpy (510.22 K, 8500 kPa, x1 = 0.6): 0.00151 ± 0.0012 kcal/mol
- excess molar enthalpy (510.22 K, 8500 kPa, x1 = 0.8): -0.0352 ± 0.00239 kcal/mol
- excess molar enthalpy (510.43 K, 10000 kPa, x1 = 0.4): 0.0943 ± 0.00741 kcal/mol
- excess molar enthalpy (510.63 K, 10000 kPa, x1 = 0.2): 0.0733 ± 0.00454 kcal/mol
- excess molar enthalpy (510.71 K, 8500 kPa, x1 = 0.9): -0.0418 ± 0.00263 kcal/mol
- excess molar enthalpy (510.88 K, 10000 kPa, x1 = 0.5): 0.0876 ± 0.00765 kcal/mol
- excess molar enthalpy (511.51 K, 10000 kPa, x1 = 0.1): 0.0425 ± 0.00263 kcal/mol
- excess molar enthalpy (511.67 K, 10000 kPa, x1 = 0.6): 0.0678 ± 0.00669 kcal/mol
- excess molar enthalpy (512.18 K, 10000 kPa, x1 = 0.7): 0.0484 ± 0.00526 kcal/mol
- excess molar enthalpy (512.47 K, 10000 kPa, x1 = 0.5): 0.0767 ± 0.00574 kcal/mol
- excess molar enthalpy (512.6 K, 10000 kPa, x1 = 0.4): 0.0828 ± 0.00526 kcal/mol
- excess molar enthalpy (512.67 K, 10000 kPa, x1 = 0.8): 0.0257 ± 0.00311 kcal/mol
- excess molar enthalpy (512.9 K, 10000 kPa, x1 = 0.3): 0.0793 ± 0.00454 kcal/mol
- excess molar enthalpy (512.9 K, 10000 kPa, x1 = 0.9): 0.00574 ± 0.00127 kcal/mol
- excess molar enthalpy (513.15 K, 8500 kPa, x1 = 0.1): 0.011 ± 0.0055 kcal/mol
- excess molar enthalpy (513.15 K, 8500 kPa, x1 = 0.2): 0.00782 ± 0.00574 kcal/mol
- excess molar enthalpy (513.15 K, 8500 kPa, x1 = 0.3): -0.012 ± 0.00574 kcal/mol
- excess molar enthalpy (513.15 K, 8500 kPa, x1 = 0.4): -0.0294 ± 0.00598 kcal/mol
- excess molar enthalpy (513.15 K, 8500 kPa, x1 = 0.5): -0.0556 ± 0.00693 kcal/mol
- excess molar enthalpy (513.15 K, 8500 kPa, x1 = 0.6): -0.0928 ± 0.00837 kcal/mol
- excess molar enthalpy (513.15 K, 8500 kPa, x1 = 0.7): -0.14 ± 0.01 kcal/mol
- excess molar enthalpy (513.15 K, 8500 kPa, x1 = 0.8): -0.164 ± 0.011 kcal/mol
- excess molar enthalpy (513.15 K, 8500 kPa, x1 = 0.9): -0.155 ± 0.01 kcal/mol
- excess molar enthalpy (513.15 K, 10000 kPa, x1 = 0.1): 0.0396 ± 0.00201 kcal/mol
- excess molar enthalpy (513.15 K, 10000 kPa, x1 = 0.2): 0.0663 ± 0.00287 kcal/mol
- excess molar enthalpy (513.15 K, 10000 kPa, x1 = 0.3): 0.0779 ± 0.00311 kcal/mol
- excess molar enthalpy (513.15 K, 10000 kPa, x1 = 0.4): 0.0799 ± 0.00311 kcal/mol
- excess molar enthalpy (513.15 K, 10000 kPa, x1 = 0.5): 0.0728 ± 0.00311 kcal/mol
- excess molar enthalpy (513.15 K, 10000 kPa, x1 = 0.6): 0.0598 ± 0.00263 kcal/mol
- excess molar enthalpy (513.15 K, 10000 kPa, x1 = 0.7): 0.0408 ± 0.00215 kcal/mol
- excess molar enthalpy (513.15 K, 10000 kPa, x1 = 0.8): 0.0228 ± 0.00172 kcal/mol
- excess molar enthalpy (513.15 K, 10000 kPa, x1 = 0.9): 0.00569 ± 0.00146 kcal/mol
- excess molar enthalpy (513.61 K, 10000 kPa, x1 = 0.2): 0.0641 ± 0.00406 kcal/mol
- excess molar enthalpy (513.87 K, 10000 kPa, x1 = 0.1): 0.0385 ± 0.00217 kcal/mol
- excess molar enthalpy (513.88 K, 10000 kPa, x1 = 0.6): 0.0498 ± 0.00478 kcal/mol
- excess molar enthalpy (514.32 K, 8500 kPa, x1 = 0.1): -0.00899 ± 0.012 kcal/mol
- excess molar enthalpy (514.32 K, 8500 kPa, x1 = 0.2): -0.0402 ± 0.0127 kcal/mol
- excess molar enthalpy (514.32 K, 8500 kPa, x1 = 0.3): -0.0669 ± 0.0141 kcal/mol
- excess molar enthalpy (514.32 K, 8500 kPa, x1 = 0.4): -0.118 ± 0.0177 kcal/mol
- excess molar enthalpy (514.32 K, 8500 kPa, x1 = 0.5): -0.16 ± 0.0191 kcal/mol
- excess molar enthalpy (514.32 K, 8500 kPa, x1 = 0.6): -0.183 ± 0.0198 kcal/mol
- excess molar enthalpy (514.32 K, 8500 kPa, x1 = 0.7): -0.214 ± 0.021 kcal/mol
- excess molar enthalpy (514.32 K, 8500 kPa, x1 = 0.8): -0.247 ± 0.0215 kcal/mol
- excess molar enthalpy (514.32 K, 8500 kPa, x1 = 0.9): -0.28 ± 0.0206 kcal/mol
- excess molar enthalpy (514.44 K, 10000 kPa, x1 = 0.9): -0.00217 ± 0.000956 kcal/mol
- excess molar enthalpy (514.48 K, 10000 kPa, x1 = 0.7): 0.0282 ± 0.00311 kcal/mol
- excess molar enthalpy (514.52 K, 10000 kPa, x1 = 0.8): 0.0107 ± 0.00177 kcal/mol
- excess molar enthalpy (514.98 K, 10000 kPa, x1 = 0.1): 0.0354 ± 0.00191 kcal/mol
- excess molar enthalpy (514.98 K, 10000 kPa, x1 = 0.2): 0.0587 ± 0.00263 kcal/mol
- excess molar enthalpy (514.98 K, 10000 kPa, x1 = 0.3): 0.0676 ± 0.00287 kcal/mol
- excess molar enthalpy (514.98 K, 10000 kPa, x1 = 0.4): 0.0676 ± 0.00287 kcal/mol
- excess molar enthalpy (514.98 K, 10000 kPa, x1 = 0.5): 0.0582 ± 0.00263 kcal/mol
- excess molar enthalpy (514.98 K, 10000 kPa, x1 = 0.6): 0.0411 ± 0.00217 kcal/mol
- excess molar enthalpy (514.98 K, 10000 kPa, x1 = 0.7): 0.0222 ± 0.00167 kcal/mol
- excess molar enthalpy (514.98 K, 10000 kPa, x1 = 0.8): 0.00755 ± 0.00139 kcal/mol
- excess molar enthalpy (514.98 K, 10000 kPa, x1 = 0.9): -0.00311 ± 0.00134 kcal/mol
